Values of other authors as cited in patent US5883119A, “Triterpene derivatives with immunosuppressant activity” (Merck & Co., Inc., priority 1996, dated 1999).

Tested on: Kv 1.3 channels (CHO cells transfected with Kv 1.3 channels)
Settings: stated in the method as property of the control blocker

## margatoxin (TIINVKCTSPKQCLPPCKAQFGQSAGAKCMNGKCKCYPH; UniProt P40755 1-39, looked up)
  IC50: 0.1 nM
